Measurements: publication PMC10175687 (Frontiers in Pharmacology, 2023)
Read-outs that look alike come from different tables or passages of the source.

Key:
[1] = parameters: method as in 2 sources, one per row (each row's own in cited_ref): ref Rowland, 1990; Rybak, 2006; Cavalcanti et al., 2010 ||| ref EMA., 2022; conditions: cited from earlier work; for half-life: ref Rowland, 1990, Rybak, 2006, Cavalcanti et al., 2010
[2] = parameters: method as in Rowland, 1990; Rybak, 2006; Cavalcanti et al., 2010; conditions: ref Rowland, 1990, Rybak, 2006, Cavalcanti et al., 2010, cited from earlier work
[3] = parameters: species or system human; conditions: in vivo
Experimental: This was a prospective, open-label PPK study conducted in the ICU department of Peking University First Hospital. […] Pregnant and lactating patients, patients with special sites (endocardium, bone, joints, etc.) infections, or those who received any special treatment that may affect drug elimination, such as renal replacement therapy, were excluded.
The infusion duration was 30–60 min. […] Additionally, in 1/3 patients, 2 mL more blood sample was collected immediately after the 5th infusion; in the other 1/3 patients, 2 mL more blood sample was collected 1 h after the 5th dose, and in the remaining 1/3 patients, 2 mL more concentration sample was taken 1 h before the 6th dose. All blood samples were collected in blood collection tubes anticoagulated by ethylene diamine tetra acetic acid (EDTA) for concentration determination.
Blood samples were centrifuged within 12 h to obtain plasma. Then, 0.4 mL plasma samples were added with 0.05 mL internal standard solution (piperacillin sodium 0.15 mg/mL). Consequently, 0.6 mL acetonitrile was added, and the sample was vigorously shaken for 1 min and centrifuged at 12,000 r/min for 5 min. Then, 0.9 mL of the supernatant was transferred to a centrifuge tube, and 0.4 mL of dichloromethane was added. The solution was vigorously shaken for 1 min and centrifuged at 12,000 r/min for 5 min. The supernatant was then transferred into a vial for detection. HPLC detection conditions were as follows: Waters Symmetry C18 column (250 × 4.6 mm, 5 μm); mobile phase: 0.01 mol/L NaH2PO4 (pH = 3.3)-acetonitrile (75:25), isocratic elution; detection wavelength: 240 nm; flow rate: 1.0 mL/min; injection volume: 0.020 mL; column temperature: 35 °C ([Dong et al., 2011]). […] The above analytical method has passed the methodological verification. […] In terms of sensitivity, the signal-to-noise ratio (S/N) of the LOQ was >10. The relative standard deviations (RSDs) of the intra-day and inter-day precision of simulated plasma samples with high, medium and low concentrations were all less than 10%, and the intra-day and inter-day accuracies were 91.01%–101.13% and 92.98%–98.99%, respectively. […] The stability of simulated plasma samples with high, medium and low concentrations was good after being placed at room temperature for 4 h, frozen and thawed 3 times and stored at −80°C for 60 days, respectively, with the RSDs of tested samples all less than 10%.
The model was established in a stepwise manner. In the basic model screening process, one-, two- and three-compartment models with additive, proportional and mixed error were tested respectively, and the basic model was selected by the objective function value (OFV) and visual diagnostic plots ([Gao et al., 2020]). The model parameters were assumed to follow a log-normal distribution, and the inter-individual variability for each structural parameter was modeled using the following equation: Pi=PTV×Exp ηi (1) where P i represents parameters for the i th individual, P TV are the typical values of the parameters, and η i are random variables with zero mean and variance of ω^2.
Demographic and clinical characteristics that were considered plausible for affecting teicoplanin PK were tested as covariates, including sex, age, height, weight, BMI, ALT, AST, TBIL, DBIL, TP, ALB, WBC, Scr, GFR, and BUN. Individual PK estimates obtained from the selected structural model were firstly plotted against covariate values to assess relationships ([Byrne et al., 2017]). When a relationship between the covariate and the PK parameter was observed, the covariate was tested for inclusion into the PPK model. […]

Compound: CN[C@H](CC(C)C)C(=O)N[C@H]1C(=O)N[C@@H](CC(N)=O)C(=O)N[C@H]2C(=O)N[C@H]3C(=O)N[C@H](C(=O)N[C@H](C(=O)O)c4cc(O)cc(O)c4-c4cc3ccc4O)[C@H](O)c3ccc(c(Cl)c3)Oc3cc2cc(c3O[C@@H]2O[C@H](CO)[C@@H](O)[C@H](O)[C@H]2O[C@H]2C[C@](C)(N)[C@H](O)[C@H](C)O2)Oc2ccc(cc2Cl)[C@H]1O [vancomycin]
- half-life ([1]; vancomycin, adults with normal renal function): 6 to 12 h
- plasma protein binding rate ([2]; vancomycin): 30%–55%

Compound: teicoplanin
- renal clearance ([1]; ref EMA., 2022): 0.13 to 0.2 mL/min/kg
- total clearance ([1]; ref EMA., 2022): 0.167 to 0.233 mL/min/kg
- half-life ([1]; teicoplanin): 100 to 170 h
- dose administered recovered in feces (via bile excretion) ([1]; within 8 days after administration, ref EMA., 2022): 2.7%
- unchanged teicoplanin excreted by the urinary route ([1]; within 16 days, ref EMA., 2022): 80%
- plasma protein binding rate ([2]; teicoplanin): about 90%
- Q, Estimate (RSE%) [3]: 3.12 (10.9) L/h
- Q, bootstrap median (95% PI) [3]: 3.14 (2.62–3.90) L/h
- V1, Estimate (RSE%) [3]: 20.1 (12.9) L
- V1, bootstrap median (95% PI) [3]: 19.8 (16.1–26.2) L
- V2, Estimate (RSE%) [3]: 101 (12.7) L
- V2, bootstrap median (95% PI) [3]: 98.2 (77.5–122.2) L
- θCL_GFR, Estimate (RSE%) [3]: 0.437 (23.8)
- θCL_GFR, bootstrap median (95% PI) [3]: 0.441 (0.234–0.740)
- CL, Estimate (RSE%) ([3]; iv): 1.03 (16.6) L/h
